Data set [1] in a line: LogP by HPLC on reversed phase columns (EEC directive 79/831 Annex V.A8). It is filed as physicochemical. The following applies: method [a]: LC-UV, acidic range, 0.1% formic acid in water and acetonitrile as eluent (linear gradient 10% to 95% acetonitrile); for chromatographic logP: reversed phase HPLC column. The protocol: [table] If more than one LogP value is available within the same method, all the values are given and separated by “+”. Calibration was done with straight-chain alkan2-ones (with 3 to 16 carbon atoms) with known LogP values (measurement of LogP values using retention times with linear interpolation between successive alkanones). Lambda-max-values were determined using UV-spectra from 200 nm to 400 nm and the peak values of the chromatographic signals.

Data set [2] has as its system Sphaerotheca fuliginea. The experiment in a line: In vivo preventive test on Sphaerotheca fuliginea (powdery mildew on cucurbits). The following applies: Podosphaera fuliginea, 360 h, read-out: efficacy. The procedure: Example C: In Vivo Preventive Test on Sphaerotheca fuliginea (Powdery Mildew on Cucurbits)
(§1) The active ingredients are made soluble and homogenized in a mixture of Dimethyl sulfoxide/Acetone/Tween® 80 and then diluted in water to the desired concentration.
The young plants of gherkin are treated by spraying the active ingredient prepared as described above. Control plants are treated only with an aqueous solution of Acetone/Dimethyl sulfoxide/Tween® 80.
After 24 hours, the plants are contaminated by spraying the leaves with an aqueous suspension of Sphaerotheca fuliginea spores. The contaminated gherkin plants are incubated for 72 hours at 18° C. and at 100% relative humidity and then for 12 days at 20° C. and at 70-80% relative humidity.
The test is evaluated 15 days after the inoculation. 0% means an efficacy which corresponds to that of the control plants while an efficacy of 100% means that no disease is observed.

Data set [3] concerns Septoria tritici. The data set can be described thus: In vivo preventive test on Septoria tritici (leaf spot on wheat). The following applies: Zymoseptoria tritici, 576 h, read-out: efficacy. The procedure: Example B: In Vivo Preventive Test on Septoria tritici (Leaf Spot on Wheat)
as §1
The young plants of wheat are treated by spraying the active ingredient prepared as described above. Control plants are treated only with an aqueous solution of Acetone/Dimethyl sulfoxide/Tween® 80.
After 24 hours, the plants are contaminated by spraying the leaves with an aqueous suspension of Septoria tritici spores. The contaminated wheat plants are incubated for 72 hours at 18° C. and at 100% relative humidity and then for 21 days at 20° C. and at 90% relative humidity.
The test is evaluated 24 days after the inoculation. 0% means an efficacy which corresponds to that of the control plants while an efficacy of 100% means that no disease is observed.

Setting [4] is: 500 ppm of active ingredient, gherkin plants, preventive spray, evaluated 15 days after inoculation, 100% = no disease.
Setting [5] is: 500 ppm of active ingredient, wheat plants, preventive spray, evaluated 24 days after inoculation, 100% = no disease.

Where two headings read alike, the source gives them in different places.

Regarding `N#Cc1cncn1CC(O)(CCc1ccc(OC(F)(F)F)c(F)c1)C1(Cl)CC1` (stereo not drawn) [I-16], the LogP in data set [1] is 3.69 ^[a]. The same measure, in the same setting: the value for `CC1(C(O)(CCc2ccccc2)Cn2cncc2C#N)CC1` (stereo not drawn) [I-47] was 2.80 ^[a]; that for `Cc1ccc(CCC(O)(Cn2cncc2C#N)C2(F)CC2)cc1` (stereo not drawn) [I-17] was 2.90 ^[a]; that for `CC(C)(C)C(O)(CCc1ccccc1)Cn1cncc1C#N` (stereo not drawn) [I-20] was 2.90 ^[a]. The same measure, in the same setting: next, `OC(CCc1ccc(Cl)cc1)(Cn1cncc1Cl)C1(Cl)CC1` (stereo not drawn) [I-12]: 2.73 ^[a]; `CC1(C(O)(CCc2ccc(Cl)cc2)Cn2cncc2C#N)CC1` (stereo not drawn) [I-48]: 3.22 ^[a]. On the same count and under the same terms, the value for `CC1(c2ccc(CCC(O)(Cn3cncc3C#N)C3(F)CC3)cc2)CC1` (stereo not drawn) [I-21] was 3.55 ^[a]. Turning to `N#Cc1cncn1CC(O)(CCc1ccc(C(F)(F)F)cc1)C1(F)CC1` (stereo not drawn) [I-03, 3-[2-(1-fluorocyclopropyl)-2-hydroxy-4-[4-(trifluoromethyl)phenyl]butyl]imidazole-4-carbonitrile], the pest or weed control at 500 ppm in data set [2] (setting [4]) and in data set [3] (setting [5]) was 90 to 100% in each case. Besides, in data set [1], the chromatographic logP was 3.15.

For the compound `CC(C)C(O)(CCc1ccccc1)Cn1cncc1C#N` (stereo not drawn) [I-36], in data set [1], the LogP is 2.53 ^[a]. `CC(C)C(O)(CCc1ccc(Cl)cc1)Cn1cncc1C#N` (stereo not drawn) [I-35]: the LogP in data set [1] is 2.95 ^[a]. On to `N#Cc1cncn1CC(O)(CCc1ccc(Cl)cc1)c1ccc(Cl)cc1` (stereo not drawn) [I-40], for which the LogP in data set [1] is 3.96 ^[a].

For the compound `CC(C)(C)C(O)(CCc1ccc(Cl)cc1)Cn1cncc1C=O` (stereo not drawn) [I-05], the LogP in data set [1] is 3.02 ^[a].

For `N#Cc1cncn1CC(O)(CCc1ccccc1)CC1CC1` (stereo not drawn) [I-42], the LogP in data set [1] was 2.62 ^[a]. In the case of `N#Cc1cncn1CC(O)(CCc1ccccc1)c1ccc(Cl)cc1F` (stereo not drawn) [I-49], the LogP in data set [1] was 3.37 ^[a].

For `N#Cc1cncn1CC(O)(CCc1ccc(Cl)cc1F)c1ccccc1` (stereo not drawn) [I-52], the LogP in data set [1] was 3.23 ^[a]. For `CC(C)(C)C(O)(CCc1ccc(Cl)cc1)Cn1cncc1Br` (stereo not drawn) [I-11], the LogP in data set [1] is 2.75 ^[a]. Still for that read-out and setting: the value for `N#Cc1cncn1CC(O)(CCc1ccc(Cl)cc1)C1CCC1` (stereo not drawn) [I-37] was 3.23 ^[a]; that for `CC(C)(C)C(O)(CCc1ccc(C(F)(F)F)cc1)Cn1cncc1C#N` (stereo not drawn) [I-41] was 3.42 ^[a]. With `N#Cc1cncn1CC(O)(CCc1ccc(C(F)(F)F)cc1)C1(Cl)CC1` (stereo not drawn) [I-08], the LogP in data set [1] is 3.48 ^[a]. Still for that read-out and setting: next, `N#Cc1cncn1CC(O)(CCc1cccnc1)C1(F)CC1` (stereo not drawn) [I-23]: 0.53 ^[a]; `N#Cc1cncn1CC(O)(CCc1ccccc1)C1(Cl)CC1` (stereo not drawn) [I-07]: 2.88 ^[a]; `N#Cc1cncn1CC(O)(CCc1ccc(Cl)cc1F)C1(Cl)CC1` (stereo not drawn) [I-32]: 3.41 ^[a].

On to `CC(C)(C)c1ccc(CCC(O)(Cn2cncc2C#N)C2(F)CC2)cc1` (stereo not drawn) [I-09], for which, in data set [1], the LogP is 3.78 ^[a]. On the same count and under the same terms, next, `CC1(c2ccc(CCC(O)(Cn3cncc3C#N)C3(Cl)CC3)cc2)CC1` (stereo not drawn) [I-24]: 4.03 ^[a]. With `CC(C)(C)C(O)(CCc1ccc(Cl)cc1)Cn1cncc1C#N` (stereo not drawn) [I-02, 3-[2-[2-(4-chlorophenyl)ethyl]-2-hydroxy-3,3-dimethyl-butyl]imidazole-4-carbonitrile], the pest or weed control at 500 ppm in data set [2] (setting [4]) and in data set [3] (setting [5]) was 90 to 100% throughout. This compound also had a chromatographic logP in data set [1] of 3.31. In the case of `N#Cc1cncn1CC(O)(CCc1ccc(Cl)nc1)C1(Cl)CC1` (stereo not drawn) [I-28, 3-[2-(1-chlorocyclopropyl)-4-(6-chloro-3-pyridyl)-2-hydroxy-butyl]imidazole-4-carbonitrile], the pest or weed control at 500 ppm in data set [2] (setting [4]) and in data set [3] (setting [5]) was 90 to 100% throughout. The chromatographic logP in data set [1] was determined as 2.39.

As for `N#Cc1cncn1CC(O)(CCc1ccc(F)cc1F)C1(F)CC1` (stereo not drawn) [I-15], in data set [1], the LogP was 2.69 ^[a].

As for `N#Cc1cncn1CC(O)(CCc1ccc(Cl)cc1)C1CC1` (stereo not drawn) [I-30], in data set [1], the LogP was 2.90 ^[a].

Turning to `N#Cc1cncn1CC(O)(CCc1ccc(Cl)cc1)c1ccccc1` (stereo not drawn) [I-46, 3-[4-(4-chlorophenyl)-2-hydroxy-2-phenyl-butyl]imidazole-4-carbonitrile], the pest or weed control at 500 ppm in data set [2] (setting [4]) and in data set [3] (setting [5]) was 90 to 100% throughout. Besides, the chromatographic logP in data set [1] stood at 3.13.

In the case of `N#Cc1cncn1CC(O)(CCc1ccc(Cl)cc1)C1(F)CC1` (stereo not drawn) [I-22], the LogP in data set [1] was 2.98 ^[a].

`N#Cc1cncn1CC(O)(CCc1ccccc1)C1CCC1` (stereo not drawn) [I-38]: the LogP in data set [1] was 2.80 ^[a].

Take `N#Cc1cncn1CC(O)(CCc1ccccc1)c1ccc(Cl)cc1` (stereo not drawn) [I-39]: the LogP in data set [1] is 3.46 ^[a]. In the case of `CC(C)(C)C(O)(CCc1ccc(Cl)cc1)Cn1cncc1F` (stereo not drawn) [I-06, 1-(4-chlorophenyl)-3-[(5-fluoroimidazol-1-yl)methyl]-4,4-dimethyl-pentan-3-ol], the figures for the pest or weed control at 500 ppm in data set [2] (setting [4]) and in data set [3] (setting [5]) were 90 to 100% and 80 to 89%, respectively. In data set [1], this compound returned a chromatographic logP of 2.25.

As for `N#Cc1cncn1CC(O)(CCc1ccccc1F)C1(F)CC1` (stereo not drawn) [I-26], the LogP in data set [1] is 2.56 ^[a]. As to `N#Cc1cncn1CC(O)(CCc1ccccc1)C1(F)CC1` (stereo not drawn) [I-10, 3-[2-(1-fluorocyclopropyl)-2-hydroxy-4-phenyl-butyl]imidazole-4-carbonitrile], the pest or weed control at 500 ppm in data set [2] (setting [4]) and in data set [3] (setting [5]) was 90 to 100% throughout. Besides, in data set [1], the chromatographic logP was found to be 2.53. As to `N#Cc1cncn1CC(O)(CCc1ccc(Cl)cc1F)C1(F)CC1` (stereo not drawn) [I-25], the LogP in data set [1] was 3.00 ^[a]. As for `N#Cc1cncn1CC(O)(CCc1ccc(Cl)cc1F)c1ccc(Cl)cc1F` (stereo not drawn) [I-50], the LogP in data set [1] is 3.75 ^[a].

In the case of `Cc1ccc(CCC(O)(Cn2cncc2C#N)C(C)(C)C)cc1` (stereo not drawn) [I-29], in data set [1], the LogP was 3.22 ^[a]. The same measure, in the same setting: the value for `N#Cc1cncn1CC(O)(CCc1ccc(F)nc1)C1(Cl)CC1` (stereo not drawn) [I-33] was 2.20 ^[a]. As for `N#Cc1cncn1CC(O)(CCC1Cc2ccccc2O1)C1(F)CC1` (stereo not drawn) [I-53, 1-[4-(2,3-dihydro-1-benzofuran-2-yl)-2-(1-fluorocyclopropyl)-2-hydroxybutyl]-1H-imidazole-5-carbonitrile], in data set [1], the chromatographic logP turned out to be 2.61.

For `N#Cc1cncn1CC(O)(CCc1ccc(F)nc1)C1(F)CC1` (stereo not drawn) [I-34], in data set [1], the LogP was 1.88 ^[a]. Same read-out and setting: the value for `N#Cc1cncn1CC(O)(CCc1ccc(Cl)cc1F)c1ccc(Cl)cc1` (stereo not drawn) [I-44] was 3.64 ^[a]; that for `Cc1ccc(CCC(O)(Cn2cncc2C#N)C2(Cl)CC2)cc1` (stereo not drawn) [I-19] was 3.23 ^[a]; that for `N#Cc1cncn1CC(O)(CCc1ccccc1)C1CC1` (stereo not drawn) [I-31] was 2.49 ^[a]. As to `N#Cc1cncn1CC(O)(CCc1ccc(OC(F)(F)F)cc1)C1(F)CC1` (stereo not drawn) [I-14], the LogP in data set [1] was 3.29 ^[a].

In the case of `N#Cc1cncn1CC(O)(CCc1ccc(Cl)cc1)CC1CC1` (stereo not drawn) [I-43], the LogP in data set [1] was 3.02 ^[a].

Turning to `N#Cc1cncn1CC(O)(CCc1ccc(Cl)cc1)c1ccc(Cl)cc1F` (stereo not drawn) [I-51], the LogP in data set [1] is 3.79 ^[a]. Turning to `CC(C)(C)C(O)(CCc1ccc(Cl)cc1)Cn1cncc1Cl` (stereo not drawn) [I-04], the LogP in data set [1] was 2.78 ^[a].

Take `CC(C)(CC(O)(Cn1cncc1C#N)C1(Cl)CC1)c1ccccc1` (stereo not drawn) [I-13, 1-[2-(1-chlorocyclopropyl)-2-hydroxy-4-methyl-4-phenylpentyl]-1H-imidazole-5-carbonitrile]: the pest or weed control at 500 ppm in data set [2] and in data set [3] was 90 to 100% each time. The chromatographic logP in data set [1] was found to be 3.09.

For `N#Cc1cncn1CC(O)(CCc1ccccc1)c1ccccc1` (stereo not drawn) [I-45], the LogP in data set [1] was 2.74 ^[a]. Turning to `N#Cc1cncn1CC(O)(CCc1ccc(Cl)nc1)C1(F)CC1` (stereo not drawn) [I-27], in data set [1], the LogP is 2.03 ^[a].

Turning to `N#Cc1cncn1CC(O)(CCc1ccc(Cl)cc1)C1(Cl)CC1` (stereo not drawn) [I-18, 3-[2-(1-chlorocyclopropyl)-4-(4-chlorophenyl)-2-hydroxy-butyl]imidazole-4-carbonitrile], the pest or weed control at 500 ppm in data set [2] (setting [4]) and in data set [3] (setting [5]) was 90 to 100% each time. Moreover, in data set [1], the chromatographic logP worked out at 3.42. For the compound `CC(C)(C)c1ccc(CCC(O)(Cn2cncc2C#N)C2(Cl)CC2)cc1` (stereo not drawn) [I-01], the LogP in data set [1] was 4.18 ^[a].

What is called chromatographic logP is lipophilicity estimated from chromatographic retention. Read a high chromatographic logP as higher lipophilicity.

The values are drawn from patent US20190218187A1, “Novel 5-substituted imidazolylmethyl derivatives” (Bayer CropScience Aktiengesellschaft, priority 2016, published 2019).
